In patent US9725414B2, “Fungicidal N-bicycloalkyl and N-tricycloalkyl pyrazole-4-(thio)carboxamide derivatives” (priority 2011, dated 2017):
Like-named read-outs stand apart in the source and are kept apart here.

Columns and labels:
[1] = system: Sphaerotheca fuliginea; assay: Example B: in vivo preventive test on Sphaerotheca fuliginea (powdery mildew on cucurbits), gherkin plants; conditions: 500 ppm of active ingredient, grading 12 days after contamination
Description: In Vivo Preventive Test on Sphaerotheca fuliginea (Powdery Mildew on Cucurbits) […] Gherkin plants (“Vert petit de Paris” variety), sown in starter cups on a 50/50 peat soil-pozzolana substrate and grown at 24° C. are treated at the Z11 cotyledon stage by spraying with the active ingredient prepared as described above. Plants, used as controls, are treated with the mixture of acetone/tween/DMSO/water not containing the active material. After 24 hours, the plants are contaminated by spraying the cotyledons with an aqueous suspension of Sphaerotheca fuliginea spores (100 000 spores per mL). The spores are collected from infected plants.

[2] = system: Alternaria solani; assay: Example C: in vivo preventive test on Alternaria solani (tomato); conditions: 500 ppm of active ingredient, evaluated 7 days after inoculation
Description: (§1) In Vivo Preventive Test on Alternaria solani (Tomato) Solvent: 49 parts by weight of N,N-dimethylformamide Emulsifier: 1 part by weight of alkylarylpolyglycolether To produce a suitable preparation of active compound, 1 part by weight of active compound is mixed with the stated amounts of solvent and emulsifier, and the concentrate is diluted with water to the desired concentration. To test for preventive activity, young plants are sprayed with the preparation of active compound at the stated rate of application. One day after this treatment, the plants are inoculated with an aqueous spore suspension of Alternaria solani. The plants remain for one day in an incubation cabinet at approximately 22° C. and a relative atmospheric humidity of 100%. Then the plants are placed in an incubation cabinet at approximately 20° C. and a relative atmospheric humidity of 96%.

[3] = system: Alternaria brassicae; assay: Example D: in vivo preventive test on Alternaria brassicae (leaf spot on radish); conditions: grading 6 days after contamination
Description: In Vivo Preventive Test on Alternaria brassicae (Leaf Spot on Radish) […] Radish plants (“Pernod Clair” variety), sown in starter cups on a 50/50 peat soil pozzolana substrate and grown at 17° C., are treated at the cotyledon stage by spraying with the active ingredient prepared as described above. Plants, used as controls, are treated with the mixture of acetone/tween/DMSO/water not containing the active material. After 24 hours, the plants are contaminated by spraying the cotyledons with an aqueous suspension of Alternaria brassicae spores (50 000 spores per mL). The spores are collected from a 15-day-old culture. The contaminated radish plants are incubated at 20° C. and at 100% relative humidity. Grading (% of efficacy) is carried out 6 days after the contamination, in comparison with the control plants.

[4] = system: Pyrenophora teres; assay: Example E: in vivo preventive test on Pyrenophora teres (barley), DMF/emulsifier preparation; conditions: 500 ppm of active ingredient, evaluated 7-9 days after inoculation
Description: as §1, with “Pyrenophora teres (Barley)” for “Alternaria solani (Tomato)”, “alkylaryl polyglycol ether” for “alkylarylpolyglycolether”, “Pyrenophora teres.” for “Alternaria solani.”, “48 hours” for “one day”, “at” for “at approximately”, “100%.” for “100%. Then the plants are placed in an incubation cabinet at approximately 20° C. and a relative atmospheric humidity of 96%.”

[5] = system: Septoria tritici; assay: Example I: in vivo preventive test on Septoria tritici (wheat), acetone/tween/DMSO preparation; conditions: 500 ppm of active ingredient, grading 24 days after contamination
Description: In Vivo Preventive Test on Septoria tritici (Wheat) […] Wheat plants (“Scipion” variety), sown in starter cups on a 50/50 peat soil pozzolana substrate and grown at 22° C., are treated at the 1 leaf stage (10 cm height) by spraying with the active ingredient prepared as described above. Plants, used as controls, are treated with the mixture of acetone/tween/DMSO/water not containing the active material. After 24 hours, the plants are contaminated by spraying the leaves with an aqueous suspension of cryopreserved Septoria tritici spores (500 000 spores per mL). The contaminated wheat plants are incubated for 72 hours at 18° C. and at 100% relative humidity, and then for 21 days at 90% relative humidity. Grading (% of efficacy) is carried out 24 days after the contamination, in comparison with the control plants.

[6] = system: Puccinia recondita; assay: Example M: in vivo preventive test on Puccinia recondita (brown rust on wheat); conditions: 500 ppm of active ingredient, grading 12 days after contamination
Description: In Vivo Preventive Test on Puccinia recondita (Brown Rust on Wheat) […] Wheat plants (“Scipion” variety), sown in starter cups on a 50/50 peat soil pozzolana substrate and grown at 22° C., are treated at the 1 leaf stage (10 cm height) by spraying with the active ingredient prepared as described above. Plants, used as controls, are treated with the mixture of acetone/tween/DMSO/water not containing the active material. After 24 hours, the plants are contaminated by spraying the leaves with an aqueous suspension of Puccinia recondite spores (100 000 spores per mL). The spores are collected from an infected plant and are suspended in water containing 2.5 mL/L of Tween 80 at 10%. […] Grading (% of efficacy) is carried out 12 days after the contamination, in comparison with the control plants.

[7] = system: Uromyces appendiculatus; assay: Example Q: in vivo preventive test on Uromyces appendiculatus (bean rust); conditions: Uromyces appendiculatus on bean plants, 500 ppm of active ingredient, grading 11 days after contamination
Description: In Vivo Preventive Test on Uromyces appendiculatus (Bean Rust) […] Bean plants (“Saxa” variety), sown in starter cups on a 50/50 peat soil pozzolana substrate and grown at 24° C., are treated at the 2 leaf stage (9 cm height) by spraying with the active ingredient prepared as described above. Plants, used as controls, are treated with the mixture of acetone/tween/DMSO/water not containing the active material. After 24 hours, the plants are contaminated by spraying the leaves with an aqueous suspension of Uromyces appendiculatus spores (150 000 spores per mL). The spores are collected from infected plants and are suspended in water containing 2.5 mL/L of Tween 80 at 10%. […] Grading (% of efficacy) is carried out 11 days after the contamination, in comparison with the control plants.

[8] = system: Pyrenophora teres; assay: Example F: in vivo preventive test on Pyrenophora teres (barley), acetone/tween/DMSO preparation; conditions: grading 14 days after contamination
Description: In Vivo Preventive Test on Pyrenophora teres (Barley) […] Barley plants (“Plaisant” variety), sown in starter cups on a 50/50 peat soil pozzolana substrate and grown at 22° C., are treated at the 1 leaf stage (10 cm height) by spraying with the active ingredient prepared as described above. Plants, used as controls, are treated with the mixture of acetone/tween/DMSO/water not containing the active material. After 24 hours, the plants are contaminated by spraying the leaves with an aqueous suspension of Pyrenophora teres spores (12 000 spores per mL). The spores are collected from a 12-day-old culture. […] Grading (% of efficacy) is carried out 14 days after the contamination, in comparison with the control plants.

[9] = system: Botrytis cinerea; assay: Example P: in vivo preventive test on Botrytis cinerea (grey mould), gherkin plants; conditions: 500 ppm of active ingredient, grading 4 to 5 days after contamination
Description: In Vivo Preventive Test on Botrytis cinerea (Grey Mould) […] Gherkin plants (“Vert petit de Paris” variety), sown in starter cups on a 50/50 peat soil pozzolana substrate and grown at 24° C. are treated at the Z11 cotyledon stage by spraying with the active ingredient prepared as described above. Plants, used as controls, are treated with the mixture of acetone/tween/DMSO/water not containing the active material. After 24 hours, the plants are contaminated by spraying the cotyledons with an aqueous suspension of cryopreserved Botrytis cinerea spores (50 000 spores per mL). The spores are suspended in a nutrient solution composed of 10 g/L of PDB, 50 g/L of D-Fructose, 2 g/L of NH4NO3 and 1 g/L of KH2PO4. The contaminated gherkin plants are incubated at 17° C. and at 90% relative humidity. Grading (% of efficacy) is carried out 4 to 5 days after the contamination, in comparison with the control plants.

[10] = log P by HPLC on reversed-phase column (C 18), EEC Directive 79831 Annex V.A8; assay type: physicochemical
Description: In table 1, the log P values were determined in accordance with EEC Directive 79831 Annex V.A8 by HPLC (High Performance Liquid Chromatography) on a reversed-phase column (C 18), using the method described below: Temperature: 40° C.; Mobile phases: 0.1% aqueous formic acid and acetonitrile; linear gradient from 10% acetonitrile to 90% acetonitrile. Calibration was carried out using unbranched alkan-2-ones (comprising 3 to 16 carbon atoms) with known log P values (determination of the log P values by the retention times using linear interpolation between two successive alkanones). lambda-max-values were determined using UV-spectra from 200 nm to 400 nm and the peak values of the chromatographic signals.

[11] = Pyrenophora teres on barley, 100 ppm of active ingredient
[12] = 500 ppm of active ingredient, barley
[13] = HPLC reversed-phase C 18, 40° C., 0.1% aqueous formic acid and acetonitrile gradient, several values = mixture of two or more isomers

logP [10, 13]	logP [10]	SMILES	Efficacy [1]	Efficacy [2]	Efficacy ([3]; 500 ppm of active ingredient)	Efficacy [4]	Efficacy [5]	Efficacy [6]	Efficacy [7]	Efficacy ([3]; 100 ppm of active ingredient)	Efficacy [8, 11]	Efficacy [8, 12]	Efficacy [9]
–	–	Cn1nc(C(F)F)c(C(=O)N(C2CC2)C2CCC3CCCC3C2)c1F (mixture of isomers) [Example 22]	100%	100%	93%	100%	88%	100%	100%	–	–	–	–
–	–	Cn1nc(C(F)F)c(C(=O)N(CC2CCCC3CCCC32)C2CC2)c1F (mixture of isomers) [Example 60]	–	–	–	–	–	–	–	100%	98%	–	–
–	–	Cn1cc(C(=O)N(CC2CCCC3CCCC32)C2CC2)c(C(F)F)n1 (mixture of isomers) [Example 61]	–	–	–	–	–	–	–	92%	100%	–	–
–	–	CC(C1CC2C=CC1C2)N(C(=O)c1c(C(F)F)nn(C)c1F)C1CC1 (mixture of isomers) [Example 101]	100%	–	92%	–	100%	–	–	–	–	100%	98%
3.55	–	Cn1nc(C(F)F)c(C(=O)N(C2CC2)C2CCC3CCCC32)c1F (centres unmarked) [Example 4]	–	–	100%	–	–	78%	–	–	–	100%	80%
3.65	–	Cn1nc(C(F)F)c(C(=O)N(C2CC2)C2CCC3CCCC32)c1F (centres unmarked) [Example 5]	98%	–	100%	–	100%	100%	100%	–	–	97%	–
3.02	–	Cn1cc(C(=O)N(C2CC2)C2CCC3CCCC32)c(C(F)F)n1 (centres unmarked) [Example 6]	100%	–	100%	–	–	–	77%	–	–	100%	100%
3.19	–	Cn1cc(C(=O)N(C2CC2)C2CCC3CCCC32)c(C(F)F)n1 (centres unmarked) [Example 7]	100%	–	80%	–	97%	98%	94%	–	–	100%	–
–	3.35	CN(C(=O)c1c(C(F)F)nn(C)c1F)C1CCC2CCCCC21 (centres unmarked) [Example 8]	–	–	–	–	–	–	–	100%	98%	–	–
–	2.88	CN(C(=O)c1cn(C)nc1C(F)F)C1CCC2CCCCC21 (centres unmarked) [Example 9]	–	–	–	–	–	–	–	100%	75%	–	–
3.72	–	CON(C(=O)c1c(C(F)F)nn(C)c1F)C1CCC2CCCCC21 (centres unmarked) [Example 10]	100%	–	100%	–	93%	100%	100%	–	–	93%	–
4.68	–	Cn1nc(C(F)F)c(C(=O)N(C2CC2)C2CCCC3CCCCC32)c1Cl (centres unmarked) [Example 32]	100%	–	100%	–	80%	98%	89%	–	–	97%	–
3.61	–	CC1C(NC(=O)c2c(C(F)F)nn(C)c2F)CC2CC1C2(C)C (centres unmarked) [Example 49]	–	–	96%	–	–	–	–	–	–	88%	98%
3.61	–	CC1C(NC(=O)c2c(C(F)F)nn(C)c2F)CC2CC1C2(C)C (centres unmarked) [Example 50]	90%	–	80%	–	97%	–	–	–	–	88%	99%
5.08	–	Cn1nc(C(F)F)c(C(=O)N(CC2CCCC3CCCCC32)C2CC2)c1Cl (centres unmarked) [Example 67]	100%	–	97%	–	94%	97%	87%	–	–	98%	–
4.32	–	Cn1cc(C(=O)N(CC2(Cc3ccccc3)CC3CCC2C3)C2CC2)c(C(F)F)n1 (centres unmarked) [Example 70]	98%	–	91%	–	96%	–	88%	–	–	79%	100%
3.68	–	Cn1nc(C(F)F)c(C(=O)NCC2C3CC4CC(C3)CC2C4)c1F (centres unmarked) [Example 90]	–	–	90%	–	92%	–	–	–	–	81%	100%
3.90	–	Cn1nc(C(F)F)c(C(=O)NCC2C3CC4CC(C3)CC2C4)c1Cl (centres unmarked) [Example 91]	–	–	96%	–	–	–	–	–	–	75%	99%
3.27	–	Cn1cc(C(=O)NCC2C3CC4CC(C3)CC2C4)c(C(F)F)n1 (centres unmarked) [Example 92]	–	–	96%	–	83%	–	–	–	–	–	100%
